{"source": "paper PMC10424705", "about": "“Physiological insight into the conserved properties of Caenorhabditis elegans acid‐sensing degenerin/epithelial sodium channels” (The Journal of Physiology, 2022)", "test_in_all_cases": "two-electrode voltage clamp, Xenopus oocytes", "assay_type_in_all_cases": "cell-based", "key": {"UNC-105h [1]": {"target": "T1, UNC-105h (Caenorhabditis elegans, UniProt Q09274)", "T1 construct": "isoform h cDNA in KSM vector, Xenopus laevis oocytes, homomeric channel (trimer by known biology)", "T1 sequence (Q09274 1-887)": "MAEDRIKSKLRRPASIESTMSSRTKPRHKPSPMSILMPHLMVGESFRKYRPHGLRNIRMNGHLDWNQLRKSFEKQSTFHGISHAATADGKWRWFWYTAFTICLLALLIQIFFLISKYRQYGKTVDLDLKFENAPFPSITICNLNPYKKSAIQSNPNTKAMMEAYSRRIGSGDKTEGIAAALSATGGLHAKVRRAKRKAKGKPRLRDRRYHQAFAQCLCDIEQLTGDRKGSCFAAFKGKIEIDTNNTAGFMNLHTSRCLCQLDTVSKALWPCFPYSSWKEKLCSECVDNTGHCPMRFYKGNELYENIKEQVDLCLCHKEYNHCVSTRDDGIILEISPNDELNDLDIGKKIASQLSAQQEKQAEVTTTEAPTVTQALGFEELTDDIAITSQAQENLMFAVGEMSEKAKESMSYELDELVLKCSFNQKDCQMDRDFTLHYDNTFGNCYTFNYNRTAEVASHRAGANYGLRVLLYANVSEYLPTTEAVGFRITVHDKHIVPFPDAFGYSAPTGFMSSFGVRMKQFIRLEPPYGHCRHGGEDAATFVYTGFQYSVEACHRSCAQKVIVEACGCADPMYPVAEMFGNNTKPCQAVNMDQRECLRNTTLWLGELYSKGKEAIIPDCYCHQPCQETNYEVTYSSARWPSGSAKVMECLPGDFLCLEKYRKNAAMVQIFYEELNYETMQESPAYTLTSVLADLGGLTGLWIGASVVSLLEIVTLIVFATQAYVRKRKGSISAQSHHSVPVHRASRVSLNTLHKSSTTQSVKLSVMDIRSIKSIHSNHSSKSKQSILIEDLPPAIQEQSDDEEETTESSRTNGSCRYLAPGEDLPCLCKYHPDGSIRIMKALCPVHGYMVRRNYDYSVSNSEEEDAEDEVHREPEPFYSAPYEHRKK", "conditions": "pH 7.4, -60 mV, ND96, room temperature; second, current-restoring phase of biphasic response; text b54 prints 6.7 µM instead"}, "ASIC-1": {"target": "T2, ASIC-1 (Caenorhabditis elegans, UniProt O01635)", "T2 construct": "full-length cDNA in KSM vector, Xenopus laevis oocytes, homomeric channel (trimer by known biology)", "T2 sequence (O01635 1-823)": "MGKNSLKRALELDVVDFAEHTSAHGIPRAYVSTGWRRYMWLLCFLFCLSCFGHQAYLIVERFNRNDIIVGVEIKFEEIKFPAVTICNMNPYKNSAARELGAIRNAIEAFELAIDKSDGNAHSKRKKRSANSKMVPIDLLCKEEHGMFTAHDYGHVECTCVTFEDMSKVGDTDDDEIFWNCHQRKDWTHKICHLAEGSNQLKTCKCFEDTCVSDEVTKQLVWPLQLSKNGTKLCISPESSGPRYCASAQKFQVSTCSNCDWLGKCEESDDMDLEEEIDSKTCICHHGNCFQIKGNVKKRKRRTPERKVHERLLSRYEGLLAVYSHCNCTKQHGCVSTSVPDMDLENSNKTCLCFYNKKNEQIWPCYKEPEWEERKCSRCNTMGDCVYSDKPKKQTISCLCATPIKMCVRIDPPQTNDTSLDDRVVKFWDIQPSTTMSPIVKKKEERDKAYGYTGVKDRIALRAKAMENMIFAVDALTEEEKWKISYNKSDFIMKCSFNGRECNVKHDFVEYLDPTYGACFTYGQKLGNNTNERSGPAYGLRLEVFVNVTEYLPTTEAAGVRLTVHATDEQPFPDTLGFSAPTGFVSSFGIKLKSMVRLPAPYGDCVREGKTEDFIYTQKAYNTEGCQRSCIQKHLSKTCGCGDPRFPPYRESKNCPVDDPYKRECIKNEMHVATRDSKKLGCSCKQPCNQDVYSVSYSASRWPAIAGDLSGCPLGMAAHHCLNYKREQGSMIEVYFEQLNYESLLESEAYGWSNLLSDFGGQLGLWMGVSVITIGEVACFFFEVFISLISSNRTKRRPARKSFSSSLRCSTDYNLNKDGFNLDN"}, "UNC-105h [2]": {"target": "T1, UNC-105h", "conditions": "pH 7.4, -60 mV, ND96, room temperature; paradoxical biphasic response, low-concentration inhibition"}}, "data": [{"smiles": "N=C(N)NC(=O)c1nc(Cl)c(N)nc1N", "note": "[amiloride]", "values": [{"measurement": "EC50", "setting": "UNC-105h [1]", "value": 5.9, "unit": "µM"}, {"measurement": "IC50", "setting": "ASIC-1", "value": 108, "unit": "µM"}, {"measurement": "IC50", "setting": "UNC-105h [2]", "value": 0.76, "unit": "µM"}]}]}
